According to US20250019385A1, “SPIROCYCLIC ANNULATED 2-AMINO-3-CYANO THIOPHENES AND DERIVATIVES FOR THE TREATMENT OF CANCER” (Boehringer Ingelheim International GmbH, priority 2023, published 2025):
pIC50: −log10 of the molar value. Converted amounts (≈) assume the structure as drawn. Read-outs that look alike come from different tables or passages of the source.

Legend:
[1] = target: KRAS (G12C)::SOS1 protein-protein interaction (Homo sapiens (Human), UniProt P01116, C118S/C51S/C80L/G12C); assay: KRAS::SOS1 AlphaScreen binding assay (KRAS G12C); settings: GDP
Excerpt: This assay can be used to examine the potency with which compounds according to the invention binding to (mutated) KRAS inhibit the protein-protein interaction between SOS1 and (mutated) KRAS e.g. KRAS G12C, KRAS G12D. […] Low IC50 values in this assay setting are indicative of strong inhibition of protein-protein interaction between SOS1 and KRAS:
These assays measure the inhibitory effect of compounds on KRAS mutant protein-protein interactions using the Alpha Screen technology by Perkin Elmer.
The following (mutant) enzyme forms of KRAS and interacting proteins are used in these assays at the given concentrations:
KRAS (G12C) 1-169, N-terminal 6His-tag for purification, cleaved off, C-terminal avi-tag, biotinylated, mutations: C51S, C80L, C118S (in house); final assay concentration 7.5 nM and SOS1 564-1049, N-terminal 229 GST-tag, TEV cleavage site (Viva Biotech Ltd); final assay concentration 5 nM;
Test compounds dissolved in DMSO are dispensed onto assay plates (Proxiplate 384 PLUS, white, PerkinElmer; 6008289) using an Access Labcyte Workstation with the Labcyte Echo 55x. For the chosen highest assay concentration of 100 μM, 150 nL of compound solution are transferred from a 10 mM DMSO compound stock solution. A series of eleven fivefold dilutions per compound are transferred to the assay plate, compound dilutions are tested in duplicates. DMSO are added as backfill to a total volume of 150 nL.
The assays run on a fully automated robotic system in a darkened room below 100 Lux. To 150 nl of compound dilution 10 μl of a mix including KRAS mutant protein, SOS1 (final assay concentrations see above) and GDP nucleotide (Sigma G7127; final assay concentration 10 μM) in assay buffer (1×PBS, 0.1% BSA, 0.05% Tween 20) are added into columns 1-24.
After 30 minutes incubation time 5 μl of Alpha Screen bead mix in assay buffer are added into columns 1-23. Bead mix consists of AlphaLISA Glutathione Acceptor Beads (PerkinElmer, Cat No AL109) and AlphaScreen Streptavidin Donor Beads (PerkinElmer Cat No 6760002) in assay buffer at a final assay concentration of 10 μg/mL each.
Plates are kept at room temperature in a darkened incubator. After an additional 60 minutes incubation time the signal is measured in a PerkinElmer Envision HTS Multilabel Reader using the AlphaScreen specs from PerkinElmer.
Each plate contains up to 16 wells of a negative control depending on the dilution procedure (platewise or serial) (DMSO instead of test compound; with KRAS mutant::SOS1 GOP mix and bead mix; column 23) and 16 wells of a positive control (DMSO instead of test compound; with KRAS mutant::SOS1 GOP mix w/o bead mix; column 24).
As internal control known inhibitors of KRAS mutant::SOS1 interaction can be measured on each compound plate.
IC50 values are calculated and analyzed with Boehringer Ingelheim's MEGALAB C50 application using a 4 parametric logistic model.
Tables of example compounds disclosed herein contain IC50 values determined using the above assays (see Table 43).

[2] = Plasma protein binding assay (PPB), equilibrium dialysis; type: in vitro ADME; settings: 10% FCS in PBS; for fraction unbound: bovine, read-out: PPB 10% FCS (% fu)
Experimental: Binding of test compounds to plasma was determined using equilibrium dialysis (ED) and quantitative mass spectrometry interfaced with liquid chromatography (LC-MS). In brief, ED was performed with dialysis devices consisting of two chambers separated by a semipermeable membrane with a molecular weight cut-off of 5-10 kg/mol. One chamber was filled with 10% FCS in PBS containing 1-10 μmol/L test compound and the other chamber was filled with phosphate-buffer saline (PBS) with or without dextran. The dialysis chamber was incubated for 3-5 hours at 37° C. After incubation, protein was precipitated from aliquots of each chamber and the concentration of test compound in the supernatant of the plasma-containing compartment (cserum) and of the buffer-containing compartment (cbuffer) was determined by LC-MS. The fraction of unbound test compound (not bound to plasma) (f) was calculated according to the following equation: […]

SK-CO-1 cells = assay: SK-CO-1 CTG proliferation assay (120 h) (CRC, G12V); type: cell-based
Experimental: SK—CO-1 cells (ATCC HTB-39) are dispensed into black 384-well plates, flat and clear bottom (Greiner, PNr. 781091) at a density of 500 cells per well in 60 μl EMEM (Sigma M5650)+10% FCS (fetal calf serum, HyClone, SH30084.03). Cells are incubated overnight at 37° C. in a humidified tissue culture incubator at 5% CO2. Compounds (10 mM stock in DMSO) are added at logarithmic dose series using the ECHO acoustic liquid handler system (Beckman Coulter), normalizing for added DMSO and including DMSO controls. All compound treatments are performed in technical duplicates. For the TO time point measurement, untreated cells are analyzed at the time of compound addition. Plates are incubated for 120 h, and cell viability is measured using CellTiter-Glo luminescent cell viability reagent (Promega product code G7570). Viability (stated as percent of control) is defined as relative luminescence units RLU of each well divided by the RLU of cells in DMSO controls. IC50 values are determined from viability measurements by non-linear regression using a four-parameter model.
IC50 values of representative compounds according to the invention measured with these assays in the indicated cell lines are presented in Table 46.

[3] = Solubility measurement (DMSO solution precipitation method); type: physicochemical; settings: for solubility at 24 h: aqueous buffer, kinetic from dmso stock
In short: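 A 10 mM DMSO stock was diluted to 250 μM final in McIlvaine buffer at pH 4.5 or 6.8, then shaken 24 h at ambient temperature. After filtering off precipitate, filtrate concentration was quantified by LC-UV against a fully dissolved reference in acetonitrile/water (1:1).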

[4] = McIlvaine buffer pH 4.5, 24 h, read-out: solubility pH 4.5
[5] = McIlvaine buffer pH 6.8, 24 h, read-out: solubility pH 6.8

Sequence of KRAS (G12C)::SOS1 protein-protein interaction (P01116 other isoform, or with tags, fused parts or gaps G12C/C51S/C80L/C118S): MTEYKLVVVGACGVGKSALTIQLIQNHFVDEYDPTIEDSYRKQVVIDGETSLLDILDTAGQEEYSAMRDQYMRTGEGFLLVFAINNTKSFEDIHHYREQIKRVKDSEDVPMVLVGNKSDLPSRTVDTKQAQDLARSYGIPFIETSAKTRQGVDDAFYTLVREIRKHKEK

Row | pIC50 [1] | fraction unbound [2] | pIC50 (SK-CO-1 cells; Homo sapiens) | solubility at 24 h [3, 4] | solubility at 24 h [3, 5] | Structure (SMILES) | PPB 10% FCS (% fu) ([2]; fraction unbound) | pIC50 (SK-CO-1 cells) | solubility pH 4.5 ([3]; McIlvaine buffer pH 4.5, 24 h, from DMSO stock) | solubility pH 6.8 ([3]; McIlvaine buffer pH 6.8, 24 h, from DMSO stock)
1 | 8.52 | 0.01 | 7.10 | 89 µg/mL (≈ 152 µM) | 37 µg/mL (≈ 63.1 µM) | C[C@H](Oc1nc(-c2noc3c2CCC[C@@]32CCCc3sc(N)c(C#N)c32)nc2c1CCC21CCOC1)[C@@H]1CCCN1C (stereo partly shown) [II-18] |  |  |  | 
2 | 8.70 | 0.03 | 8.30 | > 151 µg/mL | 11 µg/mL (≈ 16.3 µM) | CO[C@H]1CCN(C)[C@@H]1[C@H](C)Oc1nc(-c2noc3c2CCC[C@@]32CCCc3sc(N)c(C#N)c32)nc2c1n(C)c(=O)n2[C@@H]1CCCOC1 [II-3] |  |  |  | 
3 | 8.70 | 0.07 | 7.00 | > 141 µg/mL | > 138 µg/mL | C[C@H](Oc1nc(-c2noc3c2CCC[C@@]32CCCc3sc(N)c(C#N)c32)nc2c1COC[C@@]21CCOC1)[C@@H]1CCCN1C [II-9a] |  |  |  | 
4 | 8.70 | 0.1 | 8.00 | > 139 µg/mL | 104 µg/mL (≈ 173 µM) | C[C@H](Oc1nc(-c2noc3c2CCC[C@@]32CCCc3sc(N)c(C#N)c32)nc2c1cnn2[C@@H]1CCOC1)[C@@H]1CCCN1C [II-4] |  |  |  | 

The next lines start with the compound.

Row | Structure (SMILES) | pIC50 [1] | fraction unbound [2] | pIC50 (SK-CO-1 cells; Homo sapiens) | solubility at 24 h [3, 4] | solubility at 24 h [3, 5] | PPB 10% FCS (% fu) ([2]; fraction unbound) | pIC50 (SK-CO-1 cells) | solubility pH 4.5 ([3]; McIlvaine buffer pH 4.5, 24 h, from DMSO stock) | solubility pH 6.8 ([3]; McIlvaine buffer pH 6.8, 24 h, from DMSO stock)
5 | CO[C@@H]1C[C@@H]([C@H](C)Oc2nc(-c3onc4c3CCC[C@@]43CCCc4sc(N)c(C#N)c43)nc3c2n(C)c(=O)n3[C@@H]2CCCOC2)N(C)C1 [I-14] | 8.70 | 0.15 | 8.15 | > 163 µg/mL | < 1 µg/mL |  |  |  | 
6 | COCCn1c(=O)n([C@@H]2CCOC2)c2nc(-c3onc4c3CCC[C@@]43CCCc4sc(N)c(C#N)c43)nc(O[C@@H](C)[C@@H]3CCCN3C)c21 [I-1] | 8.70 | 0.34 | 8.10 | > 157 µg/mL | > 155 µg/mL |  |  |  | 
7 | C[C@H](Oc1nc(-c2onc3c2CCC[C@@]32CCCc3sc(N)c(C#N)c32)nc2c1n(C)c(=O)n2[C@@H]1CC2CCC1O2)[C@@H]1CCCN1C (stereo partly shown) [I-18] | 8.40 | 0.2 | 6.44 | > 151 µg/mL | 97 µg/mL (≈ 148 µM) |  |  |  | 
8 | C[C@H](Oc1nc(-c2onc3c2CCC[C@@]32CCCc3sc(N)c(C#N)c32)nc2c1n(C)c(=O)n2[C@@H]1CCOC1)[C@@H]1C[C@@H](F)CN1C [I-22] | 9.00 | 0.19 | 8.05 | > 154 µg/mL | 12 µg/mL (≈ 18.5 µM) |  |  |  | 
9 | C[C@H](Oc1nc(-c2onc3c2CCC[C@@]32CCCc3sc(N)c(C#N)c32)nc2c1n(C)c(=O)n2[C@@]12COC[C@@H]1C2)[C@@H]1CCCN1C [I-29] | 9.00 | 0.39 | 9.00 | > 161 µg/mL | > 165 µg/mL |  |  |  | 
10 | CCn1c(=O)n([C@@H]2CCCOC2)c2nc(-c3onc4c3CCC[C@@]43CCCc4sc(N)c(C#N)c43)nc(O[C@@H](C)[C@@H]3CCCN3C)c21 [I-30] | 8.70 | 0.08 | 7.96 | > 154 µg/mL | 88 µg/mL (≈ 134 µM) |  |  |  | 
11 | C[C@@H]1COC[C@H](n2c(=O)n(C)c3c(O[C@@H](C)[C@@H]4CCCN4C)nc(-c4onc5c4CCC[C@@]54CCCc5sc(N)c(C#N)c54)nc32)C1 [I-44] | 8.70 | 0.1 | 8.30 | > 157 µg/mL | 2 µg/mL (≈ 3.04 µM) |  |  |  | 
12 | C[C@H](Oc1nc(-c2onc3c2CCC[C@@]32CCCc3sc(N)c(C#N)c32)nc2c1n(C)c(=O)n2C12COC(C1)C2)[C@@H]1CCCN1C [I-15] | 8.70 | 0.13 | 7.44 | > 150 µg/mL | > 153 µg/mL |  |  |  | 
13 | C[C@H](Oc1nc(-c2onc3c2CCC[C@@]32CCCc3sc(N)c(C#N)c32)nc2c1ncn2[C@@H]1CCOC1)[C@@H]1CCCN1C [I-38] | 8.70 | 0.34 | 7.49 | > 144 µg/mL | > 139 µg/mL |  |  |  | 
14 | CO[C@H]1C[C@@H](n2c(=O)n(C)c3c(O[C@@H](C)[C@@H]4CCCN4C)nc(-c4onc5c4CCC[C@@]54CCCc5sc(N)c(C#N)c54)nc32)C1 [I-31] | 8.70 | 0.09 | 7.03 | > 158 µg/mL | > 148 µg/mL |  |  |  | 
15 | C[C@H](Oc1nc(-c2onc3c2CCC[C@@]32CCCc3sc(N)c(C#N)c32)nc2c1cnn2[C@@H]1CCOC1)[C@@H]1CCCN1C [I-43] | 8.70 | 0.11 | 7.25 | > 147 µg/mL | 113 µg/mL (≈ 188 µM) |  |  |  | 
16 | CO[C@H]1CCN(C)[C@@H]1[C@H](C)Oc1nc(-c2onc3c2CCC[C@@]32CCCc3sc(N)c(C#N)c32)nc2c1n(C)c(=O)n2[C@@H]1CCOC1 [I-23] | 9.00 | 0.22 | 8.22 | > 157 µg/mL | 36 µg/mL (≈ 54.5 µM) |  |  |  | 
17 | Cc1cc2c(O[C@@H](C)[C@@H]3CCCN3C)nc(-c3onc4c3CCC[C@@]43CCCc4sc(N)c(C#N)c43)nc2n1[C@@H]1CCOC1 [I-40] | 8.70 | 0.09 | 7.41 | > 124 µg/mL | 44 µg/mL (≈ 71.7 µM) |  |  |  | 
18 | CO[C@H]1C[C@H](n2c(=O)n(C)c3c(O[C@@H](C)[C@@H]4CCCN4C)nc(-c4onc5c4CCC[C@@]54CCCc5sc(N)c(C#N)c54)nc32)C1 [I-16] | 8.30 | 0.13 | 6.61 | > 154 µg/mL | > 138 µg/mL |  |  |  | 
19 | C[C@H](Oc1nc(-c2noc3c2CCC[C@@]32CCCc3sc(N)c(C#N)c32)nc2c1CC[C@]21CNCCO1)[C@@H]1C[C@@H](F)CN1C [II-20] | 8.70 |  |  |  |  | 10 % fu | 6.83 | >156 μg/ml | >156 μg/mL
20 | CCn1c(=O)n([C@@H]2CCOC2)c2nc(-c3onc4c3CCC[C@@]43CCCc4sc(N)c(C#N)c43)nc(O[C@@H](C)[C@@H]3CCCN3C)c21 [I-21] | 9.00 | 0.16 | 8.30 | > 157 µg/mL | > 144 µg/mL |  |  |  | 
